From publication PMC10848157, “Assessing NH300094, a novel dopamine and serotonin receptor modulator with cognitive enhancement property for treating schizophrenia” (Frontiers in Pharmacology, 2024)

How the values were obtained:
male ICR mice [1] = experiment: Novel object recognition in scopolamine hydrobromide-treated mice; assay type: in vivo; conditions: NOR; NH300094 0.01–0.16 mg/kg p.o.; risperidone 0.04, 0.08, 0.16 mg/kg p.o.; rivastigmine 0.3 and 1 mg/kg i.p.
Experimental: The procedure was modified according to Bevins and Besheer ([Bevins and Besheer, 2006]). […] The tests were conducted in a 50 cm × 35 cm × 20 cm chamber and the mice behavior was recording using a Hikvision video recording system (H.265, Hikvision Digtial Technology Co., Ltd.). All mice were allowed to freely explore the chamber environment for 10 min, and there were no objects placed in the chamber during acclimatization period. […] Rivastigmine hydrogen tartrate group (0.1, 0.3 and 1 mg/kg, i.p.) were dosed simultaneously with scopolamine hydrobromide (3 mg/kg, i.p.). Training was conducted 30 min post scopolamine hydrobromide administration by placing a single mouse into a chamber for 10 min with two exactly same objects positioned in the center of chamber. (The distance between the two objects was more than 20 cm). […]
The experimental video was analyzed to record the time of mice exploring the new and old objects, respectively, and the differentiation index (DI) was calculated as follows: DI = new object exploration time/(new object exploration time + old object exploration time), which was used as the main evaluation index of discrimination ability. […] If the total exploration time of the new and old objects was less than 20 s, the total 10 min of video would be analyzed. […] The movement of circling without sniffing or sitting on the object was not recorded as exploration behavior.

[2] = Pharmacokinetics assay in rats; assay type: in vivo, male SD rats
Experimental: Six male SD rats (7 weeks of age) were randomly divided into two groups with three rats per group. Animals were fasted overnight and had free access to water before dosing. For the intravenous group, male SD rats were administered NH300094 by single intravenous bolus administration at a dose of 2 mg/kg. For the oral group, male SD rats were dosed orally with NH300094 at a dose of 10 mg/kg. Serial blood samples were collected at different time points (Pre-dose, 0.033, 0.083, 0.25, 0.5, 1, 2, 4, 6, 8, 12 and 24 h for the intravenous group; Pre-dose, 0.167, 0.333, 0.5, 1, 2, 4, 6, 8, 10, 12 and 24 h for the oral group) via jugular vein puncture from each study animal. All blood samples were transferred into commercial tube containing K2-EDTA. Plasma samples were prepared by centrifuging the blood samples at approximately 4°C, 3,200×g for 15 min, and then stored at −70°C until analysis (Supplementary Materials). The pharmacokinetic parameters were calculated using WinNonlin software (Version 6.3) according to non-compartmental model.

Alpha1A receptor = target: T1, Alpha1A receptor (Homo sapiens, UniProt P35348); experiment: Alpha1A receptor functional assay (calcium flow, FLIPR); assay type: cell-based; conditions: HEK293/Alpha1A cells, read-out: Alpha1AR, IC50
T1 construct: expressed in transfected cells; host or cells: HEK293/Alpha1A (constructed by Shanghai shujing Biopharma)
T1 sequence (P35348 1-466): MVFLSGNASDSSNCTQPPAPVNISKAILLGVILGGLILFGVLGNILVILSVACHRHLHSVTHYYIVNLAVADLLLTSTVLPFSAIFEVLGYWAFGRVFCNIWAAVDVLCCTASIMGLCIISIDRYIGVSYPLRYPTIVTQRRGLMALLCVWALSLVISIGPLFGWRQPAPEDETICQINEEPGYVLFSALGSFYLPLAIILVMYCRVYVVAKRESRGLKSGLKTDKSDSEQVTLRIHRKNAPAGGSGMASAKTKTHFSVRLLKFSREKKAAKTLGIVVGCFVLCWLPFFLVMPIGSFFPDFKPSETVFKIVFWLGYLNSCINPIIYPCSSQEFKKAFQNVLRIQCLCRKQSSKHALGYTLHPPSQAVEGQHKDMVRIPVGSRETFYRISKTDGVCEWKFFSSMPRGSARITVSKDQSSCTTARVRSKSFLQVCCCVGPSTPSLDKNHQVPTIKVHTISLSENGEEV

5-HT7 receptor = target: T2, 5-HT7 receptor (Homo sapiens, UniProt P34969); experiment: 5-HT7 receptor functional assay (Bright-Glo Luciferase assay system); assay type: cell-based; conditions: HEK293/5-HT7 cells, read-out: 5HT7R, IC50
T2 construct: host or cells: HEK293/5-HT7
T2 sequence (P34969 whole entry): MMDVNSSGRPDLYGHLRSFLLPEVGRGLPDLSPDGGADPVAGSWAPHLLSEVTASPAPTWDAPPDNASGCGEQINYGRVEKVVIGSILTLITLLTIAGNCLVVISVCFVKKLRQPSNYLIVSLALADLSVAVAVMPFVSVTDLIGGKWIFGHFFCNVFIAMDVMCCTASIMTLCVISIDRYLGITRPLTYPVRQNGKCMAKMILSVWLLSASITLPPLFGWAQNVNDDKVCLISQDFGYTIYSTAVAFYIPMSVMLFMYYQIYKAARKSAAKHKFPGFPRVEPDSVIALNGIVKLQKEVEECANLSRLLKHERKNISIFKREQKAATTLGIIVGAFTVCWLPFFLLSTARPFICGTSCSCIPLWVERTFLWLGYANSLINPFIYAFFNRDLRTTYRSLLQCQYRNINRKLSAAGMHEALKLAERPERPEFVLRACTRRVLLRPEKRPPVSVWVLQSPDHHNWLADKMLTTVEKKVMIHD

D2S receptor = D2S receptor (Homo sapiens, UniProt P14416); experiment: D2S receptor functional assay (cAMP assay, antagonist); assay type: cell-based; conditions: antagonist activity, CHO-K1/D2 cells, read-out: D2SR, IC50
D2S receptor, sequence (P14416 1-414 isoform P14416-2): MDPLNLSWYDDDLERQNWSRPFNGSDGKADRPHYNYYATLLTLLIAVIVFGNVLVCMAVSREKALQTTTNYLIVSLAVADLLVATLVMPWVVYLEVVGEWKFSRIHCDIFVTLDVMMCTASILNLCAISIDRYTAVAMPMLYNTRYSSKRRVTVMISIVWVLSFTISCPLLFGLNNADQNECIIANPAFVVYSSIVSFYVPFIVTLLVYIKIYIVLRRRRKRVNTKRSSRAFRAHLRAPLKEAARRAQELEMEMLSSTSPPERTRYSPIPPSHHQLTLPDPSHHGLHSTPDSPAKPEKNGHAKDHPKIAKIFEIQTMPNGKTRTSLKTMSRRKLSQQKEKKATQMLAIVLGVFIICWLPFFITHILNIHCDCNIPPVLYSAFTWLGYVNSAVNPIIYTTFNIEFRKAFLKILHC

in vivo = conditions: male, ICR, mouse, po
D3 receptor = D3 receptor (Homo sapiens, UniProt P35462); experiment: D3 receptor functional assay (Nano-Glo luciferase assay system); assay type: cell-based; conditions: antagonist activity, CHO-K1/D3 cells, read-out: D3R, IC50
D3 receptor, sequence (P35462 whole entry): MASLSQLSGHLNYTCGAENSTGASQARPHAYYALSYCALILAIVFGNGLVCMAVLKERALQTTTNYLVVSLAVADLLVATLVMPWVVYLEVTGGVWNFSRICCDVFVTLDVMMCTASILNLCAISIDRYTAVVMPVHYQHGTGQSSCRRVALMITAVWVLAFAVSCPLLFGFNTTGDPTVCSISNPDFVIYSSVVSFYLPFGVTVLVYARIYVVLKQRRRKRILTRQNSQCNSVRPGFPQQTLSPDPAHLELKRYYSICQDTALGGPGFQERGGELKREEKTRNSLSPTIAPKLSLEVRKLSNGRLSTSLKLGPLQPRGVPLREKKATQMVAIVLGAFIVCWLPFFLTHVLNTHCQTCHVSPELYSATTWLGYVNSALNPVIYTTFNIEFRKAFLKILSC

male ICR mice [3] = experiment: DOI-induced head twitch in mice
[4] = rat, plasma, intravenous, 2 mg/kg, male SD rats
[5] = rat, plasma, oral, 10 mg/kg, male SD rats

Compound: O=C1CCc2cc(OCCCN3CCC(c4noc5cc(F)ccc45)CC3)cc3c2N1CC3 [NH300094, 8-(3-(4-(6-fluorobenzo [d]isoxazol-3-yl)piperidin-1-yl)propoxy)-1,2,5,6-tetrahydro-4H-pyrrolo [3,2,1-ij] quinolin-4-one]
- effect on differentiation index (DI) of scopolamine hydrobromide-treated mice (male ICR mice [1]): increased DI index
- bioavailability ([2]; male, SD, rat, plasma, oral, 10 mg/kg, oral 10 mg/kg vs intravenous 2 mg/kg, male SD rats): ~87.6%
- area under the concentration time-curves for time zero to infinity ([2]; oral administration, rats (rounded value in text)): 14800 ng/mL*h
- AUC(0-inf) [2, 4]: 3.38 µg·h/mL
- AUC(0-t) [2, 4]: 3.37 µg·h/mL
- C0 [2, 4]: 10.8 µg/mL
- clearance [2, 4]: 0.595 L/h/kg
- half-life [2, 4]: 1.73 h
- Vd ([2]; rat, plasma, intravenous, 2 mg/kg, male SD rats, read-out: Vdss): 0.379 L/kg
- AUC(0-inf) [2, 5]: 14.8 µg·h/mL
- AUC(0-t) [2, 5]: 14.8 µg·h/mL
- Cmax [2, 5]: 8.71 µg/mL
- Tmax [2, 5]: 0.389 h
- half-life [2, 5]: 1.28 h
- IC50 (Alpha1A receptor): 0.0285 µM
- IC50 (5-HT7 receptor): 5.52 µM
- IC50 (D2S receptor): 0.0117 ± 0.00938 µM
- ED50 (in vivo): 6730 µg/kg
- IC50 (D3 receptor): 0.0315 ± 0.0231 µM
- ED50 (male ICR mice [3]; Mus musculus, po, read-out: ED50, inhibition of DOI-induced head twitch, single oral dose, male ICR mice, DOI 1 mg/kg): ~7 µg/kg
- MED, DOI-induced head twitch (male ICR mice [3]; single oral dose, male ICR mice): 3 µg/kg
